Data from paper PMC9150124, “Design of a Potent, Selective, and Brain-Penetrant Inhibitor of Wnt-Deactivating Enzyme Notum by Optimization of a Crystallographic Fragment Hit” (Journal of Medicinal Chemistry, 2022).

Experiments:
Assay in all cases: SelectScreen kinase profiling, SSBK ZLyte SP Technology
Format in all cases: biochemical
[1] = biological target: kinase named in conditions (Homo sapiens, UniProt P21802); conditions: FGFR2, 10 μM
Experimental: (§1) Kinase selectivity screening was performed by Thermo Fisher Scientific (Paisley, U.K.) in their SelectScreen Biochemical Kinase Profiling Service. Assay information and data are presented in the Supporting Information.
(§2) Kinase selectivity screening was performed by ThermoFisher Scientific (Paisley, U.K.) in their SelectScreenTM
(§3) Biochemical Kinase Profiling service .

[2] = biological target: kinase named in conditions (Homo sapiens, UniProt Q13153); conditions: PAK1, 10 μM
kinase named in conditions (Homo sapiens, UniProt Q13153), sequence (Q13153 whole entry): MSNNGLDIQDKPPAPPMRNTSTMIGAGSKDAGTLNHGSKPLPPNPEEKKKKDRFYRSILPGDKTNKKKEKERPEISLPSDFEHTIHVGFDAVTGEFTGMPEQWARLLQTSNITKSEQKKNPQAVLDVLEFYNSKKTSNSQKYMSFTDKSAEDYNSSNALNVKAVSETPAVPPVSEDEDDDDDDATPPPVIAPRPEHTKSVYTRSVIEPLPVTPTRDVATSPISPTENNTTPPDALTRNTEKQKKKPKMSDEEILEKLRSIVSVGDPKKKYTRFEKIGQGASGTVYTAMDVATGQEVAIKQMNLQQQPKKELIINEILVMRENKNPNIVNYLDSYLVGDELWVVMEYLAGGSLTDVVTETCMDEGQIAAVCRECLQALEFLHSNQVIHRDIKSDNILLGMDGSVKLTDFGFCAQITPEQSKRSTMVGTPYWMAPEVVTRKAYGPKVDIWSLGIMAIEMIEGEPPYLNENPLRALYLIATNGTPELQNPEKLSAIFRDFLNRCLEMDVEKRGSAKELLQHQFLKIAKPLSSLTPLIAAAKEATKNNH
Experimental: as §1, §2, §3

[3] = biological target: kinase named in conditions (Homo sapiens, UniProt P42681); conditions: TXK, 10 μM
Experimental: as §1, §2, §3

[4] = biological target: kinase named in conditions (Homo sapiens, UniProt P53350); conditions: PLK1, 10 μM
Experimental: as §1, §2, §3

[5] = biological target: kinase named in conditions (Homo sapiens, UniProt Q8IU85); conditions: CAMK1D (CaMKI delta), 10 μM
Experimental: as §1, §2, §3

[6] = biological target: kinase named in conditions (Homo sapiens, UniProt P04049, Y340D/Y341D); conditions: RAF1 (cRAF) Y340D Y341D, 10 μM
Experimental: as §1, §2, §3

[7] = biological target: kinase named in conditions (Homo sapiens, UniProt P42679); conditions: MATK (HYL), 10 μM
Experimental: as §1, §2, §3

[8] = biological target: kinase named in conditions (Homo sapiens, UniProt P06493); conditions: CDK1/cyclin B, 10 μM
Experimental: as §1, §2, §3

[9] = biological target: kinase named in conditions (Homo sapiens, UniProt Q9Y5S2); conditions: CDC42 BPB (MRCKB), 10 μM
Experimental: as §1, §2, §3

[10] = biological target: kinase named in conditions (Homo sapiens, UniProt P08581, Y1235D); conditions: MET (cMet) Y1235D, 10 μM
Experimental: as §1, §2, §3

[11] = biological target: kinase named in conditions (Homo sapiens, UniProt Q9P289); conditions: MST4, 10 μM
kinase named in conditions (Homo sapiens, UniProt Q9P289), sequence (Q9P289 whole entry): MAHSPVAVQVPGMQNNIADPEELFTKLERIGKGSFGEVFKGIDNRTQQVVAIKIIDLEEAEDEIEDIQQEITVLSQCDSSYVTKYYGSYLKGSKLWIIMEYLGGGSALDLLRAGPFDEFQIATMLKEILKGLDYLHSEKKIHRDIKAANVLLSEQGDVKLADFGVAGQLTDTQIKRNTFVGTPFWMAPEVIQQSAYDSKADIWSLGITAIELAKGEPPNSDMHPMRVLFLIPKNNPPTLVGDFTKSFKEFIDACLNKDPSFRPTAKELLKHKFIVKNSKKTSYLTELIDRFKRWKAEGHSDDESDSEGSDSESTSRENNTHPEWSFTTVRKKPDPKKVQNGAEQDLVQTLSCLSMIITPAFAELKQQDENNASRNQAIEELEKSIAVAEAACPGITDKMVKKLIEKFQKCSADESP
Experimental: as §1, §2, §3

[12] = biological target: kinase named in conditions (Homo sapiens, UniProt P07332); conditions: FES (FPS), 10 μM
Experimental: as §1, §2, §3

[13] = biological target: kinase named in conditions (Homo sapiens, UniProt Q8N4C8); conditions: MINK1, 10 μM
Experimental: as §1, §2, §3

[14] = biological target: kinase named in conditions (Homo sapiens, UniProt P48729); conditions: CSNK1A1 (CK1 alpha 1), 10 μM
Experimental: as §1, §2, §3

[15] = biological target: kinase named in conditions (Homo sapiens, UniProt P15056); conditions: BRAF, 10 μM
Experimental: as §1, §2, §3

[16] = biological target: kinase named in conditions (Homo sapiens, UniProt P08581); conditions: MET (cMet), 10 μM
Experimental: as §1, §2, §3

[17] = biological target: kinase named in conditions (Homo sapiens, UniProt Q02156); conditions: PRKCE (PKC epsilon), 10 μM
Experimental: as §1, §2, §3

[18] = biological target: kinase named in conditions (Homo sapiens, UniProt Q6VAB6); conditions: KSR2, 10 μM
kinase named in conditions (Homo sapiens, UniProt Q6VAB6), sequence (Q6VAB6 whole entry): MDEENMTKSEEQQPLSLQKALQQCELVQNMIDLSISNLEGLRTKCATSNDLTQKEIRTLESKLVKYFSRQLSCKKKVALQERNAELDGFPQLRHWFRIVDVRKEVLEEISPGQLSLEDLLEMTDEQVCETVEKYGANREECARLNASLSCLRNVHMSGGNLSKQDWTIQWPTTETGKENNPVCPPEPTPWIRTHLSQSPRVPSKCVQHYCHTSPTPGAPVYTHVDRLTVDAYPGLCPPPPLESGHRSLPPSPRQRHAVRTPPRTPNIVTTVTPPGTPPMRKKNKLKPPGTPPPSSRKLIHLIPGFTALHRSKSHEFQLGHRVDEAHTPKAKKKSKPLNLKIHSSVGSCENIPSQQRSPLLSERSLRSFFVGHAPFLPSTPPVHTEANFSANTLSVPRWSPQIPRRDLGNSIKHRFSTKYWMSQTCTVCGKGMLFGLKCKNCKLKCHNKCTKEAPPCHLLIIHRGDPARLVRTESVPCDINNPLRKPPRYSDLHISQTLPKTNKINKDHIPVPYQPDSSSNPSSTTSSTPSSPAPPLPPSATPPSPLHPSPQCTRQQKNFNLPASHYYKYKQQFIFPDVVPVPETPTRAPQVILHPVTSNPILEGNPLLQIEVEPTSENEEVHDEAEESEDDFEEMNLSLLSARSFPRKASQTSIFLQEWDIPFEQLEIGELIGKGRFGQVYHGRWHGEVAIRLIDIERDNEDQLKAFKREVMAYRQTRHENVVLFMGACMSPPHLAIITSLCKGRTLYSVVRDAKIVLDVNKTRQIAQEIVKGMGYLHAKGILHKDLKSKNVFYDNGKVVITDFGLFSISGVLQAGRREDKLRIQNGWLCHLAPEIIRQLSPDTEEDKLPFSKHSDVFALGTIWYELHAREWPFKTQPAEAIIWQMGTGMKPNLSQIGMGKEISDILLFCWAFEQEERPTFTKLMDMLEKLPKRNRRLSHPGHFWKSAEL
Experimental: as §1, §2, §3

[19] = biological target: kinase named in conditions (Homo sapiens, UniProt P35626); conditions: ADRBK2 (GRK3), 10 μM
Experimental: as §1, §2, §3

[20] = biological target: kinase named in conditions (Homo sapiens, UniProt Q9HBY8); conditions: SGK2, 10 μM
kinase named in conditions (Homo sapiens, UniProt Q9HBY8), sequence (Q9HBY8 whole entry): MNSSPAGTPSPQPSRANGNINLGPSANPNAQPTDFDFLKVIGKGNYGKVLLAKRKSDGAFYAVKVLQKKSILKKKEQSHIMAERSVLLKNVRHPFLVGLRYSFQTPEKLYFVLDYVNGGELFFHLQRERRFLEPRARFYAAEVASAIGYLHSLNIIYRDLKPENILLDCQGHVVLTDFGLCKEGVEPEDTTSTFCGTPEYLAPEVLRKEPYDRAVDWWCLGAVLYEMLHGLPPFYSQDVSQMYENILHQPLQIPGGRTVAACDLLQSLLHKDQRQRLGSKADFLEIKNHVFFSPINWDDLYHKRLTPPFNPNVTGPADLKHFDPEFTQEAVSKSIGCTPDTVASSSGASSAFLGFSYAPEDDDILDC
Experimental: as §1, §2, §3

[21] = biological target: kinase named in conditions (Homo sapiens, UniProt P28482); conditions: MAPK1 (ERK2), 10 μM
Experimental: as §1, §2, §3

[22] = system: kinase named in conditions
Experimental: as §1, §2, §3

[23] = biological target: kinase named in conditions (Homo sapiens, UniProt Q96BR1); conditions: SGKL (SGK3), 10 μM
Experimental: as §1, §2, §3

[24] = biological target: kinase named in conditions (Homo sapiens, UniProt Q13627); conditions: DYRK1A, 10 μM
Experimental: as §1, §2, §3

[25] = biological target: kinase named in conditions (Homo sapiens, UniProt P27361); conditions: MAPK3 (ERK1), 10 μM
kinase named in conditions (Homo sapiens, UniProt P27361), sequence (P27361 whole entry): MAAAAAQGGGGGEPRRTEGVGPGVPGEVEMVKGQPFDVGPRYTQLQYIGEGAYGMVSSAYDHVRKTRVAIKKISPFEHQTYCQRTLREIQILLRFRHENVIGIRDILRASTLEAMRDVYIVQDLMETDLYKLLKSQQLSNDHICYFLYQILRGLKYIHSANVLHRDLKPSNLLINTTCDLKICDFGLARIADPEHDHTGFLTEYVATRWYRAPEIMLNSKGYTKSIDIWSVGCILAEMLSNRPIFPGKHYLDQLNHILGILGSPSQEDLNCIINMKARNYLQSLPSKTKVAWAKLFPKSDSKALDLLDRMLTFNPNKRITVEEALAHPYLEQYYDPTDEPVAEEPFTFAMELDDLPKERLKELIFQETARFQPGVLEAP
Experimental: as §1, §2, §3

[26] = biological target: kinase named in conditions (Homo sapiens, UniProt O00506); conditions: STK25 (YSK1), 10 μM
Experimental: as §1, §2, §3

[27] = biological target: kinase named in conditions (Homo sapiens, UniProt Q9UL54); conditions: TAOK2 (TAO1), 10 μM
Experimental: as §1, §2, §3

[28] = biological target: kinase named in conditions (Homo sapiens, UniProt P17948); conditions: FLT1 (VEGFR1), 10 μM
Experimental: as §1, §2, §3

[29] = biological target: kinase named in conditions (Homo sapiens, UniProt P32298); conditions: GRK4, 10 μM
kinase named in conditions (Homo sapiens, UniProt P32298), sequence (P32298 whole entry): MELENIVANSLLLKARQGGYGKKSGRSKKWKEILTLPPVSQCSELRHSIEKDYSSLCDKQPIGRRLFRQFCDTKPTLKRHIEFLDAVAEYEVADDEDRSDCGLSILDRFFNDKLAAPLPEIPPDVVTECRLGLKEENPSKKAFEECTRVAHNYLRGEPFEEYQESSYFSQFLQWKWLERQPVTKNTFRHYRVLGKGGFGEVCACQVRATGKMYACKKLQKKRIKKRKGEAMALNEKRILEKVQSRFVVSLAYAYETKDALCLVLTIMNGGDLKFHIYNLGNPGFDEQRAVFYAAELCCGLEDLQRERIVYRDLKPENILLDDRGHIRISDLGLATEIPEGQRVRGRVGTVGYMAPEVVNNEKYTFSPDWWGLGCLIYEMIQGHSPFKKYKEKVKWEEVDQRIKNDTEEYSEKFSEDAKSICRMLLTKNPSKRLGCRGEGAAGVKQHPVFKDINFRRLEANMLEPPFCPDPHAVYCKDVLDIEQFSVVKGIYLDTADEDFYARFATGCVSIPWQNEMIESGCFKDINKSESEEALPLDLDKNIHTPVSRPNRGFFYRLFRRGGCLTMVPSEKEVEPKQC
Experimental: as §1, §2, §3

[30] = biological target: kinase named in conditions (Homo sapiens, UniProt O00418); conditions: EEF2K, 10 μM
Experimental: as §1, §2, §3

[31] = biological target: kinase named in conditions (Homo sapiens, UniProt O60674)
kinase named in conditions (Homo sapiens, UniProt O60674), sequence (O60674 whole entry): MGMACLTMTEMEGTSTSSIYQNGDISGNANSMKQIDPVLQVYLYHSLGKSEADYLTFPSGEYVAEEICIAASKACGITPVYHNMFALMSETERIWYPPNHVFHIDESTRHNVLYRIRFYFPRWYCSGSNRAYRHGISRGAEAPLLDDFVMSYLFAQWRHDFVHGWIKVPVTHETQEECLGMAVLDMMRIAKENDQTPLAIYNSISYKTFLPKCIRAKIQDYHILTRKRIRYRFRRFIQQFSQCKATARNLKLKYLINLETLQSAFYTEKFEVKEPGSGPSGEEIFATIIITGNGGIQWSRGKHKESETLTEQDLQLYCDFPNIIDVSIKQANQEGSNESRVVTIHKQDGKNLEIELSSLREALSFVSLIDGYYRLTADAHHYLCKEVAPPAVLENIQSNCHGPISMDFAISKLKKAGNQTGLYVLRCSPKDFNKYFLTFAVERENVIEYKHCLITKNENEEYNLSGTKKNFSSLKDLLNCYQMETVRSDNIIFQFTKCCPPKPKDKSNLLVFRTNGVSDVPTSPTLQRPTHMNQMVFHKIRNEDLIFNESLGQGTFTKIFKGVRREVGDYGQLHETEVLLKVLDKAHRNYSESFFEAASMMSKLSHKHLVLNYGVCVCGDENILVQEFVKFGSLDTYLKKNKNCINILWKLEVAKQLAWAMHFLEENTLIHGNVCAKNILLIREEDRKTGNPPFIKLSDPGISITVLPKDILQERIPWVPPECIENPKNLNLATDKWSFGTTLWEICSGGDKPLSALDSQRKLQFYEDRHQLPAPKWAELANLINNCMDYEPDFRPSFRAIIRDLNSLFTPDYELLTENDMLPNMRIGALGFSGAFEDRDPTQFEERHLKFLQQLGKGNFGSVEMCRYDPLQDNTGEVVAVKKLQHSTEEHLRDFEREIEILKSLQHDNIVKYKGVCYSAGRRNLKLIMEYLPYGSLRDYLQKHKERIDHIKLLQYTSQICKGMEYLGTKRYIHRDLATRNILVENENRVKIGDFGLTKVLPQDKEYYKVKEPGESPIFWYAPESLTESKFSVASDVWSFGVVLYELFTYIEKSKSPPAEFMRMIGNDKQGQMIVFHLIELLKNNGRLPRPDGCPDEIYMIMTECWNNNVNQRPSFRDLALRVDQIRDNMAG
Experimental: as §1, §2, §3

[32] = biological target: kinase named in conditions (Homo sapiens, UniProt Q96L34); conditions: MARK4, 10 μM
Experimental: as §1, §2, §3

[33] = biological target: kinase named in conditions (Homo sapiens, UniProt Q00537); conditions: CDK17/cyclin Y, 10 μM
Experimental: as §1, §2, §3

[34] = biological target: kinase named in conditions (Homo sapiens, UniProt Q8IY84); conditions: NIM1K, 10 μM
kinase named in conditions (Homo sapiens, UniProt Q8IY84), sequence (Q8IY84 whole entry): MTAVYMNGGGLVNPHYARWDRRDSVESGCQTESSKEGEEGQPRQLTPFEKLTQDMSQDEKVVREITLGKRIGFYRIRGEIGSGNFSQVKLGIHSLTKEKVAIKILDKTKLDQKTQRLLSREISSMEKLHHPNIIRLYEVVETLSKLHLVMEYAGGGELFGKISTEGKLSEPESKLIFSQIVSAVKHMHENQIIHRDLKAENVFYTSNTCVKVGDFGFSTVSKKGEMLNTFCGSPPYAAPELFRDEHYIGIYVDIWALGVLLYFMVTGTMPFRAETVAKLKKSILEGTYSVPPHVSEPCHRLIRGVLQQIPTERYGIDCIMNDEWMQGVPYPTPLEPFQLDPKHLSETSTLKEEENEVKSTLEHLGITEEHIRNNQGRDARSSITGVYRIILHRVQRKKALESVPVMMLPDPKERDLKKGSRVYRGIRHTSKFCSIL
Experimental: as §1, §2, §3

SMILES: FC(F)(F)c1c(Cl)ccc(-n2ccnn2)c1Cl [8l, 1-(2,4-Dichloro-3-(trifluoromethyl)phenyl)-1H-1,2,3-triazole]
- inhibition at 10 µM [1]: 11%
- inhibition at 10 µM [2]: 23%
- inhibition at 10 µM [3]: 4%
- inhibition at 10 µM [4]: 13%
- inhibition at 10 µM [5]: 1%
- inhibition at 10 µM [6]: 10%
- inhibition at 10 µM [7]: -11%
- inhibition at 10 µM [8]: 4%
- inhibition at 10 µM [9]: -1%
- inhibition at 10 µM [10]: 0%
- inhibition at 10 µM [11]: 23%
- inhibition at 10 µM [12]: 6%
- inhibition at 10 µM [13]: 14%
- inhibition at 10 µM [14]: 2%
- inhibition at 10 µM [15]: 9%
- inhibition at 10 µM [16]: 8%
- inhibition at 10 µM [17]: -1%
- inhibition at 10 µM [18]: 2%
- inhibition at 10 µM [19]: -1%
- inhibition at 10 µM [20]: 4%
- inhibition at 10 µM [21]: -2%
- % Inhibition mean ([22]; LYN B, 10 μM): 7%
- % Inhibition mean ([22]; PRKCB2 (PKC beta II), 10 μM): -17%
- % Inhibition mean ([22]; SRC N1, 10 μM): 4%
- inhibition at 10 µM [23]: 10%
- inhibition at 10 µM [24]: 0%
- inhibition at 10 µM [25]: 4%
- inhibition at 10 µM [26]: 5%
- inhibition at 10 µM [27]: -8%
- inhibition at 10 µM [28]: 8%
- inhibition at 10 µM [29]: -3%
- inhibition at 10 µM [30]: 3%
- inhibition at 10 µM ([31]; JAK2, 10 μM): 3%
- inhibition at 10 µM ([31]; JAK2 JH1 JH2, 10 μM): -1%
- inhibition at 10 µM [32]: -2%
- inhibition at 10 µM [33]: 1%
- inhibition at 10 µM [34]: 5%
